According to patent US20260376293A1, “METHODS FOR STUDYING GPR158 PHARMACOLOGY AND IDENTIFICATION OF ITS LIGANDS” (UNIVERSITY OF FLORIDA RESEARCH FOUNDATION, INCORPORATED, priority 2022, published 2026):

Biological target: T1, GPR158 (Homo sapiens, UniProt Q5T848)
T1 sequence (Q5T848 24-1215): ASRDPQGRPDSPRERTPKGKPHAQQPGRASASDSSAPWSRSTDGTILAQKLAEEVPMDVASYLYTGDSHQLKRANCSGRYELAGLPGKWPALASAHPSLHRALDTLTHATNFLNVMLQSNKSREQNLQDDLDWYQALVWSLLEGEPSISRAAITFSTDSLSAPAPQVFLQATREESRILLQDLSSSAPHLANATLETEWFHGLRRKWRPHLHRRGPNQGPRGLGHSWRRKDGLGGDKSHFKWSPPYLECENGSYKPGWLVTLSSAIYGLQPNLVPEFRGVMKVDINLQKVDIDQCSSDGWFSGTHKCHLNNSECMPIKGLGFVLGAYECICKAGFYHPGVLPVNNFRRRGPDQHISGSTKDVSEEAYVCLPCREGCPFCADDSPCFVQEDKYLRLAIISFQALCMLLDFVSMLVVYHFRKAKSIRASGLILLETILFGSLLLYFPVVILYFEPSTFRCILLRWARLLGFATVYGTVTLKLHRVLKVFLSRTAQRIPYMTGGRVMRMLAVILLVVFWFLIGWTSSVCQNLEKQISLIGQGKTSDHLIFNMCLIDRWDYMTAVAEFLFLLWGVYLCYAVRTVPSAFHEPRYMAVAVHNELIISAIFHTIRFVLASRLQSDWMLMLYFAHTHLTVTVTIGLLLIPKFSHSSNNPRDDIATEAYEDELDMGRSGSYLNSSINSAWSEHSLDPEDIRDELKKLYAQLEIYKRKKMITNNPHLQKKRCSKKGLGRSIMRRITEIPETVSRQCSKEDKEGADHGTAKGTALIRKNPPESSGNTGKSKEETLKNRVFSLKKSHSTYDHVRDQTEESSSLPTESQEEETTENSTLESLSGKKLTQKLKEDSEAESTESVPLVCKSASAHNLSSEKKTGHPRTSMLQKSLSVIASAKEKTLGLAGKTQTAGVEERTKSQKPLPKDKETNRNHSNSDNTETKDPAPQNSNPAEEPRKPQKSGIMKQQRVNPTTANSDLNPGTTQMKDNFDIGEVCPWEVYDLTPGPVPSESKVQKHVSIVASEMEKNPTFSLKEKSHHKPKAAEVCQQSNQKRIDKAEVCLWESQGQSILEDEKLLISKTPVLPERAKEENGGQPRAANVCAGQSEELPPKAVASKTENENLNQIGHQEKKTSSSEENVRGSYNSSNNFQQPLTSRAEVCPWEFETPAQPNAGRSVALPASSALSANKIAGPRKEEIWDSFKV
Test: Whole cell radioligand binding assay
Design: expressed in transfected cells; host or cells: HEK293 (HEK293FT in the BRET methods)
Conditions: HEK293 cells, across concentrations
Method: FIG. 7. Direct binding of glycine in whole cell radiolabeled assay a) Schematics of the radioligand binding assay. b) Quantification of ^3H-glycine binding to cells. Count Per minute (CPM) are measured and plotted. Data shown mean of 3 independent experiments error bars are s.e.m. values, n=3, *p=0.0403, ***p<0.001, ****p<0.0001 (two-way ANOVA) Columns with no fill (Control cells), columns with angled-line fill (GPR158 cells).
Next, the inventors performed radioligand binding assays examining binding of [^3H]-labeled glycine to HEK293 cells expressing GPR158 (FIG. 7A). […] The inventors have then isolated cellular membranes and conducted classical radioligand titration experiments (FIG. 9D). The inventors detected saturable [^3H]-glycine binding to membranes containing GPR158 is substantial excess over linear non-specific binding to membranes devoid of GPR158 (FIG. 9E). Scatchard analysis (FIG. 9F) estimated Kd of GPR158 for glycine to be ~3 μM. The inventors further performed binding competition experiments directly comparing the ability of glycine and taurine to displace [^3H]-labeled glycine bound to GPR158 (FIG. 8).
Whole cell binding was performed using cDNA of GPR158-venus or each GPR158-venus mutant or empty pcDNA3.1+ for ctrl cells. […] Finally radioactivity was measured using the liquid scintillation analyzer Tri-Carb 4910 TR.

For `NCC(=O)O` [^3H-glycine, [^3H]-glycine], the “binding to GPR158-expressing cells” value was “significant binding”.
